{
  "source": "patent US5464821A",
  "about": "“Small peptidic compounds useful for the treatment of glaucoma” (Carlbiotech, Ltd., priority 1991, dated 1995)",
  "key": {"[1]": {"test_system": "stress induced intraocular pressure in the rabbit's eye", "test": "stress induced antagonizing model, intraocular pressure in the rabbit's eye", "assay_type": "in vivo", "set-up": "key to Antagonizing Effect: Active: the pressure increase following 10 stress units for the treated group on average was found to be smaller than 2 mm Hg and to be significantly less compared to untreated controls", "conditions": "for Antagonizing Effect: 1% solution in 0.9% aqueous NaCl, 60 μl topically 3 times daily over 5 days, following 10 stress units", "description": "The main feature of this clinical model is a stress induced elevation of the IOP in the rabbit eye above the initial and normal value. The stress is exerted, i.e. applied, in the form of measuring the pressure (at 12 hour intervals) with the help of a SHIOTZ-Tonometer, which is loaded with 7.5 grams. The pressure first begins to rise after 5 measurements, i.e. after 21/2 days, and reaches a maximum after 10 measurements, i.e. after 5 days.\nKnown antiglaucoma drugs lower the intraocular pressure when they are applied after the intraocular pressure (IOP) has clearly been established,in spite of the fact that the trauma, i.e. the measuring of the pressure, continued during the treatment.\nAntagonizing of the Intraocular Pressure in the stressed Rabbit's Eyes Model\nThe compound was a freeze-dried powder, and was applied to the rabbit eye as a powder, or as drops, dissolved in 0.9% NaCl aqueous solution. Negative control was 0.9% NaCl solution in water.\n(§1) Peptides were tested for the intraocular pressure lowering or antagonizing effects in the water load model described above or the stress induced antagonizing model respectively, in groups of four to ten rabbits, as described below. The tests were performed on homogeneous groups of randomly sexed rabbits, weight 2.5-3.0 kg, but of different breeds in various laboratories several places in the world. Thus, in some cases intergroup variations were found in the absolute starting pressure of the rabbit's eyes.\n(§2) In the case of the water load model structure, each rabbit served as its own reference control for the duration of the experiment, and in the case of the stress induced antagonistic model, each group of rabbits served as reference control, at the beginning and end of 10 stress units. Usually, the peptides were dissolved in plain isotonic saline, but in one case in the waterload model, a TRIS-buffer at physiological pH was included.\nThe peptides were applied topically as a 1% solution in 0.9% aqueous NaCl in aliquots of 60 μl 3 times daily over a period of 5 days."}, "[2]": {"test_system": "water load induced hypertension in the rabbit's eye", "test": "water load model, intraocular pressure in the rabbit's eye", "assay_type": "in vivo", "description": "The findings of IOP lowering effects in the stress induced rabbit model have been confirmed and further studied by using another elevated eye pressure rabbit model. In this model, the widely applied water load model, elevation of the intraocular pressure is achieved by injecting a large volume of sterile water intraperitoneally into the rabbits. Following onset of eye drop treatment in one eye while the other eye is treated with saline placebo, the intraocular pressure of both eyes is then measured at various intervals and the .pressure difference between the eyes is taken as an expresion of the pharmaceutical effect.\nThe studies utilized a \"water load\" animal model.\nThirty minutes before drug solution instillation, rabbits were injected intraperitonally with 60 ml/kg of sterile distilled water for injection (30° C.) spiked with an antibiotic mixture (Sigma P9032).\nAt time zero, 50 μl of a drug solution was instilled to one eye and an equal volume of a saline solution was instilled to the other eye. The IOP in each eye was monitored at the time points indicated. The change in IOP at each time point is computed by subtracting the IOP in the dosed eye from that in the undosed-eye.\nFrom these plots were assessed the maximal IOP effect, the time to reach this and the time for returning to a zero or insignificant level of IOP lowering effect. These figures were taken as a measure of potency and duration of effect.\nas §1, §2\n50 μl of a 1% solution of the peptides in 0.9% aqueous saline were applied in one eye and 50 μl of 0.9% aqueous saline in the other eye 30 minutes after the intraperitonal water loading and IOP were measured in both eyes for 2 hours and the difference calculated.\n50 μl of 1% solution of the peptides in 0.9% isotonic saline containing TRIS-buffer pH 7.4 was applied in one eye and 50 μl of 0.9% isotonic saline containing TRIS-buffer. pH 7.4 in the other eye 30 minutes after the interperitonal water loading and intraocular pressure was measured in both eyes for 2 hours and the difference calculated."}, "[3]": {"conditions": "from PCT/DK90/00322; cited from earlier work"}, "[4]": {"test_system": "stress induced intraocular pressure in the rabbit's eye", "conditions": "earlier work in the laboratory of one of the inventors; cited from earlier work"}, "[5]": {"conditions": "single dose 50 μl of 1% solution in 0.9% aqueous saline in one eye, saline in the other, IOP measured for 2 hours"}},
  "note": "Residues, ends and D or L forms follow the SMILES beside them. *: point of attachment. OBn = c1ccc(CO*)cc1; Acm = CC(=O)NC*",
  "data": [
    {"compound": "CC(C)C[C@H](NC(=O)[C@@H](N)CC(N)=O)C(=O)NCC(=O)N[C@@H](Cc1ccc(O)cc1)C(N)=O", "note": "[H-Asn-Leu-Gly-Tyr-NH2] (H-NLGY-NH2)", "values": [
      {"measurement": "Antagonizing Effect", "setting": "[1]", "result": "Active"}
    ]},
    {"compound": "CC(=O)NCC(=O)NCC(=O)N[C@H](C(N)=O)C(C)C", "note": "[Ac-Gly-Gly-Val-NH2] (Ac-Gly-Gly-Val-NH2)", "values": [
      {"measurement": "Pressure Lowering Effect", "setting": "[2]; [5]", "result": "Active"},
      {"measurement": "Antagonizing Effect", "setting": "[1]", "result": "Active"}
    ]},
    {"compound": "CC[C@@H]1C(=O)OC[C@@H]1Cc1cncn1C", "note": "[pilocarpine, reference compound]", "values": [
      {"measurement": "pressure lowering effect in the water load model (in words)", "setting": "[2]; 2.6% solution, positive reference control", "result": "gave a similar response to some of the preferred compounds"}
    ]},
    {"compound": "CC(C)C[C@H](NC(=O)[C@@H](N)CC(N)=O)C(=O)NCC(=O)N[C@H](C(N)=O)C(C)C", "note": "[H-Asn-Leu-Gly-Val-NH2] (H-NLGV-NH2)", "values": [
      {"measurement": "Antagonizing Effect", "setting": "[1]", "result": "Active"}
    ]},
    {"compound": "CC(C)[C@H](NC(=O)CN)C(=O)OCc1ccccc1", "note": "[H-Gly-Val-OBzl, Glycyl-L-Valine-Benzylester] (H-Gly-Val-OBn)", "values": [
      {"measurement": "Pressure Lowering Effect", "setting": "[2]; [5]", "result": "Active"},
      {"measurement": "Antagonizing Effect", "setting": "[1]", "result": "Active"},
      {"measurement": "antagonizing effect / efficacy in the stress induced rabbit model (in words)", "setting": "[1]; stress induced model", "result": "good efficacy"}
    ]},
    {"compound": "CC(C)[C@H](NC(=O)CCN)C(=O)OCc1ccccc1", "note": "[H-β-Ala-Val-OBzl, β-alanyl L-valine Benzylester]", "values": [
      {"measurement": "Pressure Lowering Effect", "setting": "[2]; single dose 50 μl of 1% solution in 0.9% isotonic saline containing TRIS-buffer pH 7.4, IOP measured for 2 hours", "result": "Active"}
    ]},
    {"compound": "CC(C)[C@H](NC(=O)CNC(=O)CNC(=O)[C@@H](N)CC(N)=O)C(N)=O", "note": "[H-Asn-Gly-Gly-Val-NH2] (H-NGGV-NH2)", "values": [
      {"measurement": "Antagonizing Effect", "setting": "[1]", "result": "Active"}
    ]},
    {"compound": "CC(=O)NCSC[C@H](NC(=O)[C@@H](NC(=O)CNC(=O)[C@H](CC(C)C)NC(=O)[C@@H](N)CC(N)=O)C(C)C)C(N)=O", "note": "[HAsnLeuGlyValCys(Acm)NH2, H-Asn-Leu-Gly-Val-Cys(Acm)-NH2] (H-NLGVC(Acm)-NH2)", "values": [
      {"measurement": "penetration of the sclera of the eye", "setting": "[3]", "result": "penetrate the sclera of the eye"}
    ]},
    {"compound": "CC(C)[C@H](NC(=O)CN)C(=O)N[C@@H](Cc1ccc(O)cc1)C(N)=O", "note": "[H-Gly-Val-Tyr-NH2] (H-Gly-Val-Tyr-NH2)", "values": [
      {"measurement": "Pressure Lowering Effect", "setting": "[2]; [5]", "result": "Active"},
      {"measurement": "Antagonizing Effect", "setting": "[1]", "result": "Active"}
    ]},
    {"compound": "CCOC(=O)[C@@H](NC(=O)CNC(=O)CN)C(C)C", "note": "[H-Gly-Gly-Val-OEt] (H-Gly-Gly-Val-OEt)", "values": [
      {"measurement": "Antagonizing Effect", "setting": "[1]", "result": "Active"}
    ]},
    {"compound": "CC(C)(C)NC[C@H](O)COc1nsnc1N1CCOCC1", "note": "[timolol]", "values": [
      {"measurement": "pressure lowering effect of known drugs in the stress model", "setting": "[4]", "result": "pressure lowering effect"}
    ]}
  ]
}
